Experiments:
Test in all cases: combination Emax (second highest fraction inhibited in the dose matrix, 72 h); higher = more inhibition; extreme values may be limits of the assay
[1] = system: MPP-89 (Mesothelioma)
In short: (§1)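 Cell lines grown in DMEM/F12 or RPMI with 10% FBS were plated in 1536-well plates and held 24 hours at 37°C, 5% CO2 before 72 hours of exposure to two-drug dose matrices, with DMSO typically at 0.2%. CellTiter-Glo 2.0 luminescence gave viability, which was converted to inhibition. Vehicle wells were set to 0 and blank wells to 1. Combination Emax is the second-highest inhibition in the matrix, and Bliss excess is the observed combination effect minus the expected EA + EB − EA·EB, where EA and EB are the single-agent effects.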

[2] = system: MHH-CALL-2 (B-Lymphoblastic Leukemia)
In short: as §1

[3] = system: Detroit562 (Head and Neck Carcinoma)
In short: as §1

[4] = system: BE2-M17 (Neuroblastoma)
In short: as §1

[5] = system: BPH-1 (Non-Cancerous)
In short: as §1

[6] = system: CAL-72 (Osteosarcoma)
In short: as §1

[7] = system: NCI-H209 (Small Cell Lung Carcinoma)
In short: as §1

[8] = system: NUGC-4 (Gastric Carcinoma)
In short: as §1

[9] = system: SAS (Oral Cavity Carcinoma)
In short: as §1

[10] = system: BFTC-909 (Kidney Carcinoma)
In short: as §1

[11] = system: CAL-33 (Oral Cavity Carcinoma)
In short: as §1

[12] = system: Hs-746T (Gastric Carcinoma)
In short: as §1

[13] = system: GAMG (Glioblastoma)
In short: as §1

[14] = system: L-428 (Hodgkin's Lymphoma)
In short: as §1

[15] = system: KMRC-20 (Kidney Carcinoma)
In short: as §1

[16] = system: EW-11 (Ewing's Sarcoma)
In short: as §1

[17] = system: HeLa (Cervical Carcinoma)
In short: as §1

[18] = system: FTC-133 (Thyroid Gland Carcinoma)
In short: as §1

[19] = system: SW1573 (Lung Adenocarcinoma)
In short: as §1

[20] = system: KYAE-1 (Esophageal Adenocarcinoma)
In short: as §1

| Structure (SMILES) | combination Emax [1] | combination Emax [2] | combination Emax [3] | combination Emax [4] | combination Emax [5] | combination Emax [6] | combination Emax [7] | combination Emax [8] | combination Emax [9] | combination Emax [10] | combination Emax [11] | combination Emax [12] | combination Emax [13] | combination Emax [14] | combination Emax [15] | combination Emax [16] | combination Emax [17] | combination Emax [18] | combination Emax [19] | combination Emax [20] |
| --- | --- | --- | --- | --- | --- | --- | --- | --- | --- | --- | --- | --- | --- | --- | --- | --- | --- | --- | --- | --- |
| NC1(C(=O)N[C@@H](CCO)c2ccc(Cl)cc2)CCN(c2ncnc3[nH]ccc23)CC1 [Capivasertib] + COc1nnc2ccc(N3CCC(c4ccc(OCCN5CCN(C)C(=O)[C@H]5C)cc4)CC3)nn12 [AZD5153] (first compound max 10 µM, 7x7, partner max 1 µM) | 0.495 | 0.338 | 0.925 | 0.696 | 0.691 | 0.481 | 0.539 | 0.542 | 0.801 | 0.678 | 0.749 | 0.599 | 0.724 | 0.742 | 0.398 | 0.948 | 0.423 | 0.73 | 0.409 | 0.223 |
| Cc1c2c(nn1C)CSCc1cc(n(C)n1)CSc1cc(c3ccccc3c1)OCCCc1c(C(=O)O)n(C)c3c-2c(Cl)ccc13 [AZD5991] + C[C@@H]1COCCN1C2=NC(=NC(=C2)C3(CC3)[S@](=N)(=O)C)C4=C5C=CNC5=NC=C4 [AZD6738] (first compound max 1 µM, 7x7, partner max 10 µM) | 0.596 | 1 | 0.902 | 0.991 | 0.521 | 0.832 | 0.997 | 0.561 | 0.849 | 0.931 | 0.901 | 0.551 | 0.579 | 0.808 | 0.516 | 0.932 | 0.856 | 0.923 | 0.368 | 0.207 |
| CC1(C)CCC(CN2CCN(c3ccc(C(=O)NS(=O)(=O)c4ccc(NCC5CCOCC5)c([N+](=O)[O-])c4)c(Oc4cnc5[nH]ccc5c4)c3)CC2)=C(c2ccc(Cl)cc2)C1 [Venetoclax] + CN(C)CCCOc1ccc(-c2ccc3ncc4c(c3c2)n(C2CCOCC2)c(=O)n4C)cn1 [AZD0156] (first compound max 1 µM, 7x7, partner max 1 µM) | 0.408 | 0.153 | 0.212 | 0.238 | 0.254 | 0.687 | 0.528 | 0.166 | 0.256 | 0.144 | 0.178 | 0.226 | 0.273 | 0.176 | 0.201 | 0.69 | 0.188 | 0.167 | 0.201 | 0.115 |
